Several values for one entry are separate records, joined by “and”; a condition that tells them apart may be missing. Equal values may be shown once. *1 amine or outer side, *2 acyl side, *3 side chain or, on linkers, in order; H or OH if unused. Where a SMILES comes first, the peptide text is derived from it. [ ]: non-standard residue; d: D form. X1 = CC1=CC(C)=[N+]2C1=C(c1cccc(-c3[nH]c4ccccc4c3C[C@H](N[*:1])C(=O)[*:2])c1)c1ccc(-c3ccc(C)s3)n1[B-]2(F)F; Nle = CCCC[C@H](N)C(=O)O
How the values were obtained:
HeLa cells = test: Cell viability assay (TACS MTT Cell Proliferation assay); format: cell-based; conditions: different concentrations of peptide, 2 h at 37 °C, vs untreated control, means ± s.d. (n = 4), p > 0.05
Description: 5. Experimental Protocols for Biological Assays
Spectroscopic characterisation
Spectral properties were measured in a BioTek Cytation 3 spectrophotometer. Absorbance and emission spectra were determined in the range of 400–700 nm (every 1 nm) at the indicated concentrations. Environmental sensitivity was measured by comparing the emission in PBS or in presence of phosphatidylcholine: cholesterol (7:1) liposomes (3.75 mg mL-1 PC).
Fluorescence emission was determined on a 384-well plate using a BioTek Cytation 3 spectrophotometer as indicated (excitation at 520 nm, 530-700 nm emission range, every 1 […]
(§1) Protease stability assays
(§2) The chemical stability of the peptides was assessed in the presence of Protease XIV (from Streptomyces Griseus) in PBS-citrate buffer (pH 7.1) at 37 °C. First, a stock of 5 μg mL-1 of the protease cocktail in the buffer was prepared. Initially, a concentrated 1 mg mL−1 solution was obtained by weighing 1.1 mg of the protease and dissolving it in 1.1 mL of buffer, and afterwards diluting it down to the desired 5 μg mL-1 stock. Then, 5 µL of the peptides (5 mM in DMSO) were diluted with 45 µL of the protease cocktail to obtain a final peptide concentration of 500 µM. Peptides were vortexed, covered in aluminium foil and shaken at 37°C for 2 h or 24 h. […]
Cell viability of HeLa cells was determined using the TACS® MTT Cell Proliferation assay (Trevigen). […]

[1] = test system: Protease XIV (from Streptomyces Griseus); test: Protease stability assay (protease cocktail, HPLC-MS monitoring); format: in vitro ADME; conditions: Protease XIV 5 μg mL-1 in PBS-citrate buffer pH 7.1, 37 °C, peptide 500 µM (from 5 mM DMSO stock), HPLC-MS with detection at 280 nm
Description: Given that proteases are abundant enzymes at tumour sites, we also investigated the potential degradation of the cyclopeptides 2 (unlabelled) and 8 [Trp(redBODIPY)-labelled] when subjected to strong proteolytic environments. We incubated both peptides with a commercially available protease cocktail at 37 °C and recorded their chemical stability by HPLC-MS over time. […] We also observed that the incorporation of the amino acid Trp(redBODIPY) into the structure of the cyclopeptide 2 slightly augmented its resistance to proteases, likely due to the inherent properties of unnatural amino acids.
5. Experimental Protocols for Biological Assays […]
as §1
as §2, with “h. Aliquots (25 µL) were taken, proteins were precipitated by microcentrifugation at 4°C, and supernatants were collected for HPLC-MS with detection at 280 nm.” for “h.”

| Compound | Viability of HeLa cells (HeLa cells) | chemical stability 2 h [1] [%] | chemical stability 24 h [1] [%] | fluorescence increase in hydrophobic medium (fluorogenic) |
| --- | --- | --- | --- | --- |
| CCCC[C@@H]1NC(=O)[C@H](Cc2c(-c3cccc(C4=C5C(C)=CC(C)=[N+]5[B-](F)(F)n5c4ccc5-c4ccc(C)s4)c3)[nH]c3ccccc23)NC(=O)[C@H](CC(C)C)NC(=O)[C@H](Cc2ccccc2)NC(=O)[C@@H](CCCCN)NC(=O)[C@H](CCC(N)=O)NC(=O)[C@H](Cc2ccc(O)cc2)NC(=O)[C@H](C)NC(=O)[C@H](C)NC(=O)[C@H](CCC(=O)O)NC1=O [compound 8] (cyclo(AAYQ[dK]FL[X1][Nle]E)) | Non-significant differences | > 95 | 82 | < 70 fold and 70 fold |
| CCCC[C@@H]1NC(=O)[C@H](Cc2c[nH]c3ccccc23)NC(=O)[C@H](CC(C)C)NC(=O)[C@H](Cc2ccccc2)NC(=O)[C@@H](CCCCN)NC(=O)[C@H](CCC(N)=O)NC(=O)[C@H](Cc2ccc(O)cc2)NC(=O)[C@H](C)NC(=O)[C@H](C)NC(=O)[C@H](CCC(=O)O)NC1=O [compound 2, reference compound] (cyclo(AAYQ[dK]FLW[Nle]E)) | – | 65 | 50 | – |
